Results taken from US20260007601A1, “IONIZABLE CATIONIC LIPID COMPOUND AND COMPOSITION FOR DELIVERING NUCLEIC ACID AND USE THEREOF” (BEIJING YOUCAREKECHUANG PHARMACEUTICAL TECHNOLOGY CO., LTD., priority 2023, published 2026).

What was measured:
[1] = Particle size and polydispersity index (PDI) of nanolipid particles, dynamic light scattering; format: physicochemical; settings: LNP formulation prepared from the named cationic lipid, 25° C
Method: The particle size and polydispersity index (PDI) were determined by dynamic light scattering method using a Malvern laser particle size analyzer. 10 μL of liposome solution was diluted to 1 mL with RNase-free deionized water and added to a sample pool. Each sample was measured three times. The measurement conditions were: 90° scattering angle, 25° C.

[2] = Encapsulation rate, drug loading concentration and total RNA concentration detection (RiboGreen); format: physicochemical; settings: LNP formulation of the named lipid
From the text: Encapsulation rate is a key quality attribute of liposomes. It refers to the percentage of drug content encapsulated in the lipid bilayer to the total amount of drug added, which can reflect the degree of drug encapsulation in liposomes. The Chinese Pharmacopoeia stipulates that the encapsulation rate should usually not be less than 80%.
The drug loading capacity is the ratio of the amount of drug in the liposome to the total amount of drug and carrier in the liposome. The drug loading capacity directly affects the clinical application dose of the drug, so the larger the drug loading capacity, the more it can meet clinical needs. The drug loading concentration is proportional to the drug loading capacity, and the relative proportion of the drug loading concentration can represent the relative proportion of the drug loading capacity. The relative proportion of the total RNA concentration can represent the relative proportion of the amount of mRNA carried by the LNP formulation.
1×TE buffer, 0.1% Triton X-100 buffer, and RiboGreen reagent (1:200) and mRNA standard stock solution were prepared.
An appropriate amount of sample was taken and added to an appropriate amount of 1×TE buffer, which was diluted to a solution containing about 2.8 μg of the test sample per 1 mL. Then the sample was added to a 96-well plate, where 50 μL of the diluted test sample or mRNA standard stock solution was added to each well, and then added with 1×TE buffer and 0.1% Triton X-100 buffer. The samples were incubated at 37° C. for 10 minutes, and 100 μL of RiboGreen reagent (1:200) was added to each well of the 96-well plate. The plate was centrifuged, and read using an ELISA reader, and the data was processed.

293T cells [3] = test: Fluorescence detection of Fluc-mRNA (cell transfection efficiency of LNP formulations); format: cell-based; settings: for Relative light unit (RLU): LNP containing 0.3 μg Fluc-mRNA, 24 hours; for Multiples of values that equivalent to YK-201: RLU of YK-201 / RLU of the named lipid; for Multiples of values that equivalent to YK-202: RLU of YK-202 / RLU of the named lipid; for Multiples of values that equivalent to YK-209: RLU of YK-209 / RLU of the named lipid; for Ratio relative to SM-102: RLU of the named lipid / RLU of SM-102, times that of SM-102
Method: (§1) Cell recovery and passaging: 293T cells were recovered and cultured in culture dishes to the required cell number.
(§2) Plating: The cells in the culture dish were digested, counted, plated in a 96-well plate at 10,000 cells per well, or in a 12-well plate at 150,000 cells per well, and cultured overnight until the cells adhered to the wall.
(§3) Cell recovery and passage: The method was the same as in Example 3.
(§4) Plating: The method was the same as Example 3.
The LNP formulation containing 0.3 μg Fluc-mRNA (prepared according to Example 4, the LNP formulation carrier components were cationic lipids, neutral lipids, structured lipids and polymer-conjugated lipids at a molar ratio of 49:10:39.5:1.5, and the cationic lipids were cationic lipids listed in Table 1) was added to the cell culture medium of a 96-well plate, and cultured for 24 hours. After that, the corresponding reagents were added according to the instructions of the Gaussia Luciferase Assay Kit, and the fluorescence expression intensity of each well was detected by the IVIS fluorescence detection system. This experiment verified the transfection efficiency of the LNP formulation in the cell, and the specific detection results are shown in Tables 6-9.

293T cells [4] = test: Cell survival rate assay (CCK-8); format: cell-based; settings: LNP containing 1.5 μg Fluc-mRNA, 24 hours, CCK-8
Method: as §1, §2, §3, §4
The LNP formulations containing 1.5 μg Fluc-mRNA (prepared according to Example 4, the LNP formulation carrier components are cationic lipids, neutral lipids, structured lipids and polymer-conjugated lipids at a molar ratio of 49:10:39.5:1.5, wherein the cationic lipids are the cationic lipids listed in Table 1) and the Lipofectamine 3000 formulation were added to the cell culture medium of the 96-well plate, and the culture was continued for 24 hours. Then, 10 μL of CCK-8 solution was added to each well, and the culture plate was incubated in the incubator for 1 hour, and the absorbance at 450 nm was measured by a microplate reader.

female BALB/C mice = test: Mouse in vivo imaging of Fluc-mRNA LNP formulations; set-up: average radiation intensity (mRNA expression): unit not given here; settings: 10 μg Fluc-mRNA LNP intramuscularly
Method: The LNP formulation containing 10 μg Fluc-mRNA (prepared according to Example 4) was injected intramuscularly into female BALB/C mice aged 4 to 6 weeks and weighing 17 to 19 g, and the mice were intraperitoneally injected with fluorescent imaging substrates at specific time points (6 h, 24 h, 48 h and 7 d) after administration. The mice moved freely for 5 minutes, and then the average radiation intensity (corresponding to the fluorescence expression intensity) of the protein expressed by the mRNA carried by the LNP in the mice was detected by IVIS Spectrum small animal in vivo imager. The test results are shown in Tables 14 to 17 and FIGS. 12 to 14.

Structure (SMILES) | PDI [1] [%] | Particle size [1] [nm] | Drug loading concentration [2] [µg/mL] | Encapsulation rate [2] [%] | Total RNA concentration [2] [µg/mL] | Relative light unit (RLU) (293T cells [3]) | Multiples of values that equivalent to YK-201 (293T cells [3]) | Multiples of values that equivalent to YK-202 (293T cells [3]) | Multiples of values that equivalent to YK-209 (293T cells [3]) | Ratio relative to SM-102 (293T cells [3]) | Cell survival rate (293T cells [4]) [%] | average radiation intensity (mRNA expression) (female BALB/C mice; 6 h) | average radiation intensity (mRNA expression) (female BALB/C mice; 24 h) | average radiation intensity (mRNA expression) (female BALB/C mice; 48 h) | average radiation intensity (mRNA expression) (female BALB/C mice; 7 d)
CCCCCCCCC(CCCCCCCC)OC(=O)CCCCCN(CCCCCC(=O)OC(CCCCCCCC)CCCCCCCC)CCN(C)CCO [YK-210, bis(heptadecan-9-yl)-6,6′-((2-(2-hydroxyethyl(methyl)amino)ethyl)azadialkyl)dihexanoate] | 22.9 | 224 | 36.50 | 85.6 | 42.62 | 4628355 | 6.15 | 6.47 | 4.55 | 2.78 | 38.38 |  |  |  | 
CCCCCCCCCCOC(=O)CCCN(CCCCCC(=O)OCCC(CCCCCC)CCCCCC)C(=O)SCCCN(C)C [YK-220] | 26.6 | 221 | 25.27 | 57.5 | 43.92 | 216398 | 131.62 | 138.44 | 97.32 | 0.13 | 58.99 |  |  |  | 
CCCCCCC(CCCCCC)CCOC(=O)CCCCCN(CCCCCC(=O)OCCC(CCCCCC)CCCCCC)CCN(C)CCO [YK-211, bis(3-hexylnonyl)-6,6-((2-(2-hydroxyethyl(methyl)amino)ethyl)azadialkyl)dihexanoate] | 20.7 | 222 | 42.91 | 97.7 | 43.92 | 1370100 | 20.79 | 21.87 | 15.37 | 0.82 | 52.30 |  |  |  | 
CCCCCCCCCCOC(=O)CCCN(CCCCCC(=O)OCC(CCCCCCCC)CCCCCCCC)CCN(C)CCOC [YK-216] | 13.7 | 219 | 27.36 | 61.3 | 44.64 | 2280300 | 12.49 | 13.14 | 9.24 | 1.37 | 45.80 |  |  |  | 
CCCCCCCCC(CCCCCCCC)COC(=O)CCCCCN(CCCCCC(=O)OCC(CCCCCCCC)CCCCCCCC)CCN(CCO)CCO [YK-212, bis(2-octyldecyl)-6,6-((2-(bis(2-hydroxyethyl)amino)ethyl)azadialkyl)dihexanoate] | 19.2 | 172 | 40.25 | 94.4 | 42.62 | 3910590 | 7.28 | 7.66 | 5.39 | 2.35 | 35.26 |  |  |  | 
CCCCCCC(CCCCCC)CCOC(=O)CCCCCN(CCCCCC(=O)OCCC(CCCCCC)CCCCCC)CCN(CCO)CCO [YK-214, bis(3-hexylnonyl)-6,6-((2-(bis(2-hydroxyethyl)amino)ethyl)azadialkyl)dihexanoate] | 31.5 | 203 | 38.16 | 96.7 | 39.46 | 4582178 | 6.22 | 6.54 | 4.60 | 2.75 | 25.58 |  |  |  | 
CCCCCCCCCCCOC(=O)CCCCCN(CCCCCCCC(=O)OC(CCCCCCCC)CCCCCCCC)CCN(C)CCNC [YK-222] | 30.4 | 218 | 25.78 | 94.0 | 27.43 | 606360 | 46.97 | 49.41 | 34.73 | 0.36 | 33.75 |  |  |  | 
CCCCCCCCC(CCCCCCCC)OC(=O)CCCCCCCN(CCO)CCCCCCCC(=O)OCCC(CCCCCC)CCCCCC [Compound 21, 9-heptadecyl-8-(8-((3-hexylnonyl)oxy)-8-oxooctyl)-((2-hydroxyethyl)amino)octanoate, reference compound] |  |  |  |  |  | 1421028 | 20.04 | 21.08 |  | 0.85 | 69.02 | 600390 | 108000 | 30025 | 6102
CCCCCCCCCCOC(=O)CCCN(CCCCCC(=O)OCC(CCCCCCCC)CCCCCCCC)CCN(CC)CCO [YK-208] | 24.4 | 167 | 37.80 | 88.2 | 42.84 | 3858487 | 7.38 | 7.76 | 5.46 | 2.32 | 46.68 |  |  |  | 
CCCCCCCCC(CCCCCCCC)OC(=O)CCCCCN(CCCCCC(=O)OC(CCCCCCCC)CCCCCCCC)CCN(C)CCNC [YK-224] | 30.3 | 185 | 38.81 | 98.7 | 39.31 | 88020 | 323.59 | 340.35 | 239.25 | 0.05 | 23.47 |  |  |  | 
CCCCCCCCCCCOC(=O)CCCCCN(CCCCC(=O)OCC(CCCCCCCC)CCCCCCCC)CCNCC [YK-226] |  |  |  |  |  | 57660 | 493.98 | 519.55 | 365.22 | 0.03 | 27.90 |  |  |  | 
